# Measurements reported in patent US8987266B2, “EGFR mutations” (Genentech, Inc., priority 2004, dated 2015).
# Tests used:
# [1] = combined with paclitaxel, cisplatin, gemcitabine, and doxorubicin; cited from earlier work
# A431 xenografts = details: nude mice; cited from earlier work
# HN5 xenografts = details: nude mice; cited from earlier work
# H1975 tumor cell line = experiment: treatment of H1975 tumor cell line; format: cell-based; details: H1975, EGFR T790M in combination with L858R
smiles,measurement,setting,value
C#Cc1cccc(Nc2ncnc3cc(OCCOC)c(OCCOC)cc23)c1 [erlotinib],interaction with chemotherapy agents,[1],additive interaction
same,growth inhibition of A431 xenografts,A431 xenografts,marked growth inhibition
same,growth inhibition of HN5 xenografts,HN5 xenografts,marked growth inhibition
same,response of tumor cell line to treatment,H1975 tumor cell line,exhibited resistance
